Assay results as given in patent US20240368121A1, “ESTROGEN RECEPTOR DEGRADERS, PHARMACEUTICAL COMPOSITIONS THEREOF, AND THEIR THERAPEUTIC APPLICATIONS” (BioTheryX, Inc., priority 2021, published 2024).

Assays:
Type in all cases: cell-based
MCF7 cells = assay: Cell viability assay ([…]-GLO, 6-day treatment); conditions: Homo sapiens, MCF7, 144 h; MCF-7 cells, 6 days, CTG; read-out: Inhibition of Cancerous Cells IC50 MCF-7
Procedure, shortened: (§1)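 MCF7 (MEM) and T47D (RPMI with insulin), both with 10% FBS, at 1,000 cells/well, treated with a 10-point compound dose series for 6 days, with medium and compound refreshed once. Viability read by CellTiter-Glo luminescence.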

T47D cells = assay: Cell viability assay ([…]-GLO, 6-day treatment); conditions: Homo sapiens, 144 h, 6 days, CTG, read-out: Inhibition of Cancerous Cells IC50 T47D
Procedure, shortened: as §1

ERα = target: T1, ERα (Homo sapiens, UniProt P03372); assay: Protein degradation assay: ERα in MCF-7 cells via western blot; conditions: 6 h; for ERα Protein Degradation 1 nM: 1 nM compound; for ERα Protein Degradation 10 nM: 10 nM compound; for ERα Protein Degradation 100 nM: 100 nM compound
T1 construct: degrading an ERα in MCF-7 cells via a western blot; endogenous in cells; host or cells: MCF-7
T1 sequence (P03372 1-595): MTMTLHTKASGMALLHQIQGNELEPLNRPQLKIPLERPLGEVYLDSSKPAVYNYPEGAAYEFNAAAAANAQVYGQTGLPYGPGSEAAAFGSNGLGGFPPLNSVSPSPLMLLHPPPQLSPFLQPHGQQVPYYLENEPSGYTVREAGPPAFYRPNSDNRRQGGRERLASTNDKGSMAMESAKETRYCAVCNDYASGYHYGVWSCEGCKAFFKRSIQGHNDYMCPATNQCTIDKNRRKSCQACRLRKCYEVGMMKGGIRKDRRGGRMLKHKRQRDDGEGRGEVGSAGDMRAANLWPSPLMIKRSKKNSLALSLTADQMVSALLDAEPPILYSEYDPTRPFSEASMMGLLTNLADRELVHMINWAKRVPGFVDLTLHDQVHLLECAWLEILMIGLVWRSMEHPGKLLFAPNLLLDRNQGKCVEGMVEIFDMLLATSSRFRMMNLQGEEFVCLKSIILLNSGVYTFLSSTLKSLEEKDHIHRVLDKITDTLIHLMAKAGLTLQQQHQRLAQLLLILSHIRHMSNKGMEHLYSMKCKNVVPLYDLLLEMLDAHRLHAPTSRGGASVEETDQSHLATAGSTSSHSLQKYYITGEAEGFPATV
Procedure, shortened: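 MCF-7 cells in MEM/10% FBS with insulin, seeded 300,000/well, treated 6 h at set concentrations (e.g., 1 nM–1 μM). Whole-cell lysates immunoblotted for ERα with GAPDH loading control, chemiluminescent detection; percentage degradation reported in binned categories (≥50%, 25–50%, 10–25%, <10%).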

| IC50 (MCF7 cells) | IC50 (T47D cells) | SMILES | ERα Protein Degradation 1 nM (ERα) | ERα Protein Degradation 10 nM (ERα) | ERα Protein Degradation 100 nM (ERα) |
| --- | --- | --- | --- | --- | --- |
| 1.8 nM | 1.3 nM | Cc1c(-c2ccc(O)cc2)n(Cc2ccc(OCCCCN3CCN(C(=O)COc4ccc5c(N6CCC(=O)NC6=O)nn(C)c5c4)CC3)cc2)c2ccc(O)cc12 [Compound E16, 1-(6-(2-(4-(4-(4-((5-Hydroxy-2-(4-hydroxyphenyl)-3-methyl-1H-indol-1-yl)-methyl)phenoxy)butyl)piperazin-1-yl)-2-oxoethoxy)-1-methyl-1H-indazol-3-yl)dihydro-pyrimidine-2,4(1H,3H)-dione] | C (a percentage degradation value of less than 25% and no less than 10%) | C (a percentage degradation value of less than 25% and no less than 10%) | D (a percentage degradation value of less than 10%) |
| 5.6 nM | 3.2 nM | Cc1c(-c2ccc(O)cc2)n(Cc2ccc(OCCCCN3CCN(C(=O)COc4ccc(N5CCC(=O)NC5=O)cc4)CC3)cc2)c2ccc(O)cc12 [Compound E27, 1-(4-(2-(4-(4-(4-((5-hydroxy-2-(4-hydroxyphenyl)-3-methyl-1H-indol-1-yl)-methyl)phenoxy)butyl)piperazin-1-yl)-2-oxoethoxy)phenyl)dihydropyrimidine-2,4(1H,3H)-dione] | D (a percentage degradation value of less than 10%) | D (a percentage degradation value of less than 10%) | D (a percentage degradation value of less than 10%) |
| 0.38 nM | 0.17 nM | Cc1c(-c2ccc(O)cc2)n(Cc2ccc(N3CCC(CN4CCN(c5ccc6c(c5)CN(C5CCC(=O)NC5=O)C6=O)CC4)CC3)cc2)c2ccc(O)cc12 (centres unmarked) [Compound E4, 3-(5-(4-((1-(4-((5-hydroxy-2-(4-hydroxyphenyl)-3-methyl-1H-indol-1-yl)-methyl)phenyl)piperidin-4-yl)methyl)piperazin-1-yl)-1-oxoisoindolin-2-yl)piperidine-2,6-dione] | B (a percentage degradation value of less than 50% and no less than 25%) | B (a percentage degradation value of less than 50% and no less than 25%) | C (a percentage degradation value of less than 25% and no less than 10%) |
| 0.09 nM | 0.02 nM | Cc1c(-c2ccc(O)cc2)n(Cc2ccc(OCCCCNCc3ccc(OCc4scc5c4CN(C4CCC(=O)NC4=O)C5=O)cc3)cc2)c2ccc(O)cc12 (centres unmarked) [Compound E5, 3-(1-((4-(((4-(4-((5-hydroxy-2-(4-hydroxyphenyl)-3-methyl-1H-indol-1-yl)-methyl)phenoxy)butyl)amino)methyl)phenoxy)methyl)-4-oxo-4H-thieno[3,4-c]pyrrol-5(6H)-yl)-piperidine-2,6-dione] | D (a percentage degradation value of less than 10%) | D (a percentage degradation value of less than 10%) | D (a percentage degradation value of less than 10%) |

The remaining lines, values behind:

| SMILES | IC50 (MCF7 cells) | IC50 (T47D cells) | ERα Protein Degradation 1 nM (ERα) | ERα Protein Degradation 10 nM (ERα) | ERα Protein Degradation 100 nM (ERα) |
| --- | --- | --- | --- | --- | --- |
| O=C1CCC(Nc2cccc(N3CCN(CC4CCN(c5ccc([C@@H]6c7ccc(O)cc7CC[C@@H]6c6ccccc6)cc5)CC4)CC3)c2)C(=O)N1 (stereo partly drawn) [Compound B13, 3-((3-(4-((1-(4-((1R,2S)-6-hydroxy-2-phenyl-1,2,3,4-tetrahydronaphthalen-1-yl)phenyl)piperidin-4-yl)methyl)piperazin-1-yl)phenyl)amino)piperidine-2,6-dione] | 16 nM | 4.6 nM | D (a percentage degradation value of less than 10%) | D (a percentage degradation value of less than 10%) | D (a percentage degradation value of less than 10%) |
| Cn1nc(C2CCC(=O)NC2=O)c2ccc(OCC(=O)N3CCN(CCCCOc4ccc([C@@H]5c6ccc(O)cc6CC[C@@H]5c5ccccc5)cc4)CC3)cc21 (stereo partly drawn) [Compound B2, 3-(6-(2-(4-(4-(4-((1R,2S)-6-hydroxy-2-phenyl-1,2,3,4-tetrahydronaphthalen-1-yl)phenoxy)butyl)piperazin-1-yl)-2-oxoethoxy)-1-methyl-1H-indazol-3-yl)piperidine-2,6-dione] | 0.25 nM | 0.01 nM | B (a percentage degradation value of less than 50% and no less than 25%) | B (a percentage degradation value of less than 50% and no less than 25%) | C (a percentage degradation value of less than 25% and no less than 10%) |
| O=C1CCC(Nc2cccc(NC(=O)CN3CCN(CC4CCN(c5ccc([C@@H]6c7ccc(O)cc7CC[C@@H]6c6ccccc6)cc5)CC4)CC3)c2)C(=O)N1 (stereo partly drawn) [Compound B19, N-(3-((2,6-dioxopiperidin-3-yl)amino)phenyl)-2-(4-((1-(4-((1R,2S)-6-hydroxy-2-phenyl-1,2,3,4-tetrahydronaphthalen-1-yl)phenyl)piperidin-4-yl)methyl)piperazin-1-yl)-acetamide] | 2.5 nM | 0.96 nM | D (a percentage degradation value of less than 10%) | D (a percentage degradation value of less than 10%) | D (a percentage degradation value of less than 10%) |
| O=C1CCC(N2Cc3c(cc(F)cc3C3CCN(CC4CCN(c5ccc([C@@H]6c7ccc(O)cc7CC[C@@H]6c6ccccc6)cc5)CC4)CC3)C2=O)C(=O)N1 (stereo partly drawn) [Compound A3, 3-(6-Fluoro-4-(1-((1-(4-((1R,2S)-6-hydroxy-2-phenyl-1,2,3,4-tetrahydro-naphthalen-1-yl)phenyl)piperidin-4-yl)methyl)piperidin-4-yl)-1-oxoisoindolin-2-yl)piperidine-2,6-dione] | 0.2 nM | 0.44 nM | D (a percentage degradation value of less than 10%) | D (a percentage degradation value of less than 10%) | D (a percentage degradation value of less than 10%) |
| O=C1CCC(N2Cc3cc(N4CCN(CC5CCN(c6ccc([C@@H]7c8ccc(O)cc8CC[C@@H]7c7ccccc7)cc6)CC5)CC4)ccc3C2=O)C(=O)N1 (stereo partly drawn) [Compound A14, 3-(5-(4-((1-(4-((1R,2S)-6-Hydroxy-2-phenyl-1,2,3,4-tetrahydronaphthalen-1-yl)-phenyl)piperidin-4-yl)methyl)piperazin-1-yl)-1-oxoisoindolin-2-yl)piperidine-2,6-dione] | 1.1 nM | 0.86 nM | A (a percentage degradation value of no less than 50%) | A (a percentage degradation value of no less than 50%) | A (a percentage degradation value of no less than 50%) |
| CN(C(=O)CN1CCN(CC2CCN(c3ccc([C@@H]4c5ccc(O)cc5CC[C@@H]4c4ccccc4)cc3)CC2)CC1)c1cccc(NC2CCC(=O)NC2=O)c1 (stereo partly drawn) [Compound B20, N-(3-((2,6-Dioxopiperidin-3-yl)amino)phenyl)-2-(4-((1-(4-((1R,2S)-6-hydroxy-2-phenyl-1,2,3,4-tetrahydronaphthalen-1-yl)phenyl)piperidin-4-yl)methyl)piperazin-1-yl)-N-methylacetamide] | 5.7 nM | 0.93 nM | B (a percentage degradation value of less than 50% and no less than 25%) | C (a percentage degradation value of less than 25% and no less than 10%) | D (a percentage degradation value of less than 10%) |
